Test results from US20170281806A1, “CHELATOR-TARGETING LIGAND CONJUGATES FOR CARDIOVASCULAR IMAGING” (priority 2009, published 2017).
“Also recorded” adds a separate entry of the source.

Key:
[1] = system: LAD zone; assay: Ischemic memory, acute model: SPECT, ex vivo imaging, gamma well counting; format: in vivo, dog; settings: for activity in the LAD zone relative to the normal LCx zone (gamma well counter), FIG. 3: after reperfusion
Experimental: FIG. 2. Time line of protocol concerning ischemic memory. LAD flow was reduced by 75% tightening of a snare occluder in dogs to produce resting ischemia for 90 minutes followed by full perfusion. 99mTc-EC-glucosamine was injected 15 minutes after reflow with SPECT performed at one hour post injection.
In two dogs, LAD flow was reduced by 75% by tightening a snare occluder to produce resting ischemia for 90 minutes followed by full reperfusion. 99mTc-EC-glucosamine was injected 15 minutes after reflow with SPECT imaging performed at one hour post injection. No perfusion images were acquired in these studies, however, the perfusion image shown from another dog in the same position on the table is fused with the 99mTc-EC-glucosamine images for orientation purposes only (FIG. 2).
The heart slides were divided into 96 segments and counted in a gamma well counter for microsphere flow, Tl-201 activity, and 99mTc-EC-glucosamine uptake.

[2] = system: myocardium; format: in vivo; settings: dog
Experimental: In this model, one of the major coronary arteries, either the left anterior descending (LAD) or left circumflex (LCx) coronary artery and all visible collateral vessels are tied off for 120 minutes, followed by complete reflow of the vessels. The chest is closed and the dogs are recovered and followed for up to 8 weeks with MR and SPECT imaging. […] Autoradiography and gamma well counting of 99mTc activity is not possible when using a 99mTc perfusion agent at the same time as 99mTc-EC-glucosamine. […] It is possible that the improved labeling efficiency in the 72 hour and 1 week scans resulted from changes that were made in the instructions for reconsistituting the 99mTc-EC-glucosamine kits. […] This dog will undergo further imaging at 4 weeks and again at 7.5/8 weeks as described above.

[3] = system: myocardium; assay: Ischemic memory, chronic model; format: in vivo, dog; settings: LAD flow reduced 90% for 90 minutes
Experimental: In a third dog, the protocol above was modified to examine 99mTc-EC-glucosamine uptake at later time points after reperfusion. In addition, the severity of the ischemic insult was increased such that LAD flow was reduced by 90% rather than 75% for 90 minutes. 99mTc-EC-glucosamine uptake was assessed at 48 hours and one week after reperfusion.

[4] = system: LV; format: in vivo, dog
From the text: In two dogs with right atrial pacing at 180 beats per minute (bpm) for 5 weeks, there was significant deterioration of cardiac ejection fraction at the 5 week timepoint with ejection fraction reduced to less than 25% in both cases.

Compound | uptake by in vivo SPECT ([1]; LAD flow reduced 75% for 90 minutes, injected 15 minutes after reflow, SPECT one hour post injection) | activity in the LAD zone relative to the normal LCx zone (gamma well counter), FIG. 3 [1] | uptake in mildly ischemic areas ([1]; flow reduced by 20-40% of normal) | activity relative to the normal zone, central ischemic zone ([1]; flow reduced by 60-80% of normal) | uptake in central and border zone ischemic areas ([1]; segments by degree of flow reduction during ischemia, FIG. 4) | uptake in the heart (SPECT) ([2]; 48 hours post myocardial infarction) | uptake in the posterior wall (SPECT) ([2]; LCx occlusion, 72 hours post infarction, imaging 2 hours after injection) | uptake in the myocardium (SPECT) ([2]; baseline before infarction) | uptake after reperfusion ([3]; 48 hours after reperfusion) | uptake after reperfusion ([3]; one week after reperfusion) | blood pool activity ([4]; dog, in vivo) | uptake in the LV (SPECT) ([4]; dogs, right atrial pacing 180 bpm for 5 weeks)
99mTc-ethylenedicysteine (EC) glucosamine [99mTc-EC-glucosamine] | focal 99mTc-EC-glucosamine hot spot in the apex of the heart; also recorded: focal hotspot | significantly higher | enhanced 99mTc-EC-glucosamine uptake | greater than 150% | enhanced | small focal hot spot | large amount of 99mTc-EC-glucosamine uptake | no 99mTc-EC-glucosamine uptake observed in the myocardium; also recorded: no 99mTc-EC-glucosamine was observed in the myocardium | uptake was observed | no uptake | significant amount of blood pool activity | 
[201Tl] [Tl-201, thallium-201, reference compound] |  | slightly reduced |  |  |  |  |  |  |  |  |  | 
CCOCC[PH+](CCOCC)CC[PH+](CCOCC)CCOCC.CCOCC[PH+](CCOCC)CC[PH+](CCOCC)CCOCC.[O]=[99Tc]=[O] [tetrofosmin, technetium Tc-99m tetrofosmin, reference compound] |  |  |  |  |  |  |  |  |  |  |  | not completely homogenous
